This experiment has as its target T1, EGRAFY mutant (R91A, F188Y; SEQ ID NO: 15) (Dickeya chrysanthemi, UniProt P0C7B7, F187Y/INS163G/R91A).
T1 construct: expressed in transfected cells; host or cells: Xenopus laevis oocytes
Description: Two-electrode voltage clamp, amine agonist activation of the EGRAFY mutant in oocytes. Format: cell-based, Erwinia chrysanthemi / human. As to the method:
For pH measurements, 10 mM MES was added. […] Non-linear regressions were performed using Prism software (Graphpad). […] (FIG. 2).

In turn, `CCCN` [propylamine] yielded a 50% effective concentration (EC50) of 1.9 ± 0.2 µM.

Usually EC50 stands for the concentration needed to bring the measured effect to its halfway point. A low value points to higher potency in that assay.

These data come from patent US9624288B2, “Engineered receptors and their use” (University of Pittsburgh—Of the Commonwealth System of …, priority 2012, dated 2017).
